Experimental data taken from paper PMC3578829, “A Small Molecule (Pluripotin) as a Tool for Studying Cancer Stem Cell Biology: Proof of Concept” (PLoS ONE, 2013).
Several values for one entry are separate records, joined by “and”; a condition that tells them apart may be missing. Equal entries are not always repeated.

Columns and labels:
COLO 205 = assay: Limiting dilution tumorigenicity, s.c. xenograft without protein support; type: in vivo, NOD.SCID mice; parameters: key to Tumorigenicity: Y indicates increased tumor formation or increased time to appearance or both.; Y ^%: Y indicates increased tumor formation when Matrigel was co-injected
Experimental: (§1) Five day exposures were conducted.
(§2) Six week old female NOD.SCID mice were randomly assigned to each of 20 treatment arms (n = 5/group). Treated and control colon tumor lines were enzymatically harvested and counted prior to dilution in RPMI 1640 (at 10, 100, 1,000, 10,000 cells/inoculum) for subcutaneous injection into the axillary region using a volume of […]. Positive control groups were established such that tumor formation occurred in all mice in approximately one week thus confirming that all tumor lines studied were tumorigenic. Cell inocula for the positive control groups ranged from 1×10^6 to 2.5×10^6. Cell viability of the cell stocks was assessed by trypan blue exclusion prior to dilution for injection and was routinely found to be >95%. Tumor formation was monitored weekly using caliper measurements and the tumor mass was calculated as weight in mg = 1/2×(tumor length)×(tumor width)^2. All experiments were terminated at 120 days or when tumor weight exceeded 2000 mg for any individual mouse. In selected studies, tumor cells were resuspended in Matrigel (50% concentration, BD Biosciences) prior to injection.

HCC-2998 = assay: as above; type: in vivo, NOD.SCID mice; parameters: key to Tumorigenicity: Y indicates increased tumor formation or increased time to appearance or both.; Y ^%: Y indicates increased tumor formation when Matrigel was co-injected
Experimental: as §1, §2

HCT-116 = assay: as above; type: in vivo, NOD.SCID mice; parameters: key to Tumorigenicity: Y indicates increased tumor formation or increased time to appearance or both.; Y ^%: Y indicates increased tumor formation when Matrigel was co-injected
Experimental: as §1, §2

HT29 = assay: as above; type: in vivo, NOD.SCID mice; parameters: key to Tumorigenicity: Y indicates increased tumor formation or increased time to appearance or both.; Y ^%: Y indicates increased tumor formation when Matrigel was co-injected
Experimental: as §1, §2

SW-620 = assay: as above; type: in vivo, NOD.SCID mice; parameters: key to Tumorigenicity: Y indicates increased tumor formation or increased time to appearance or both.; Y ^%: Y indicates increased tumor formation when Matrigel was co-injected
Experimental: as §1, §2

KM12 = assay: Soft agar cloning assay; type: cell-based
Experimental: The soft agar colony formation assay has been previously described. In brief, for each treatment condition, triplicate 35 mm^2 dishes were coated with a 1 ml base layer containing 0.7% agarose (Seaplaque: FMC Corp., Rockland, ME). On day 0, cells were dissociated, washed once in growth medium, and subcultured by layering various cell concentrations in 0.5 ml culture medium containing 0.3% agarose onto the base coat. Culture dishes were transferred to a refrigerator (4°C) for 15 min, to room temperature for 10 min, and then to culture incubators. An upper layer of 0.5 ml culture medium was applied on day 0. Cultures were stained with MTT (1 mg/ml) for visualization and imaging at multiple time intervals (day 7 and 14). Cumulative counts of colonies (diameters, >60 µm) and cumulative volumes of CFU (diameters >120 µm) were determined with an Omnicon FAS-II (Bausch & Lomb, Rochester, NY) following calibration with an Omnicon test plate 3 and polystyrene microspheres embedded in soft agar matrix. The evaluable region of each culture dish (35 contiguous fields equivalent to 51% of the cell layer culture volume) was analyzed. Selective scoring of viable cell groups was achieved by adjustment of the instrument detection threshold to exclude images of nonstained cellular material and debris. The data was analyzed with Lotus Symphony software.

phospho-ERK1/2 = assay: Immunoblotting of phospho-ERK1/2 relative to total ERK1/2 in HT29; type: cell-based
Experimental: To determine if SC-1 reached the same target in the treated colon tumor lines, changes in abundance of phospho-ERK 1/2 (p-ERK) and total ERK1/2 protein were evaluated by immunoblotting at time points similar to those previously studied (Figure 3A). In the HT29 treated tumor line, phospho-ERK 1/2 protein levels (relative to total ERK1/2 protein levels) were decreased in 5 min (67±0.06% of control value), reached a trough at 1 hr (46±0.06% of control), and remained decreased during the remainder of the time course (4 hrs, 68±0.10% of control value). Thus, it is likely SC-1 is reaching its cognate molecular target in the HT29 tumor line.
(§3) Standard protein electrophoretic techniques were followed using previously published protocols. For these studies, the colon lines were cultured for 5 days with and without treatments, harvested with trypsin (0.25% trypsin 0.5 mM EDTA, Invitrogen), counted and lysed with a whole cell lysis buffer (10 mM Tris, 1.0 mM EDTA, 50 mM NaCl, 0.5% deoxycholate, 0.5% NP-40, 0.5% SDS, 1.0 mM PMSF, and aprotonin and a cocktail of phosphatase and protease inhibitors). The whole cell lysate was heated to 100°C for 10 min and then fractionated (1000 g, 10 min, 4°C). Protein concentrations were measured with the Pierce BCA Protein Assay. Twenty to 40 µg of protein lysate per lane were loaded onto 10% SDS polyacrylamide gels (Ready-Gels, Biorad) with Laemmli buffer. For immunoblotting, the primary antibodies were diluted in Tween/Tris wash buffer (0.1 mM Tris-HCl pH 7.5, 2.5% Tween-20, 150 mM NaCl) and 5% BSA or nonfat dry milk and incubated overnight at 4°C. Visualization of specific bands was accomplished with an alkaline phosphatase-labeled secondary anti-immunoglobulin antibody and the ECF Chemifluorescent reagent (GE Amersham). Pixel intensity of the imaged bands was measured using STORM (GE Amersham) and Image Quant Software. Normalization for loading was accomplished by reprobing with an anti-actin antibody, quantification of pixel intensity and data normalization.

OCT4 = assay: Immunoblotting of OCT4 in HCC-2998; type: cell-based; details: 0.1 µM SC-1
Experimental: as §3

colon tumor lines = details: five day exposure to 0.1 µM SC-1
Experimental: In all experiments, each tumor line was cultured in 60 mm^2 tissue culture treated dishes at an initial concentration of 62,500/ml (total 4 ml) before addition of 0.1 µM SC-1 or an equivalent amount of diluent (DMS0) the next day. Five day exposures were conducted. The final concentration utilized for treatment for all tumor lines was determined by evaluating a range of SC-1 concentrations (0.01 to 10 µM) for sphere formation and any cytotoxic effects in the HCT-116 tumor line.
*Each colon cell line was seeded on day 0 with 0.25 x 10^6 cell/60 mm^2 Petri dish. Compound (0.1 µM) was added on day 1 and cells were enzymatically harvested 5 days later.

Structure (SMILES): Cc1cc(Nc2ncc3c(n2)N(C)C(=O)N(c2cc(NC(=O)c4cccc(C(F)(F)F)c4)ccc2C)C3)n(C)n1 [SC-1]
- Tumorigenicity (COLO 205; COLO 205, summary of SC-1 effects): Y
- Tumor take rate (COLO 205; COLO 205 treated 5 days with 0.1 µM SC-1, 100 cells inoculated s.c.): 0/5
- Tumor take rate (COLO 205; COLO 205 treated 5 days with 0.1 µM SC-1, 1000 cells inoculated s.c.): 1/5
- Tumor take rate (COLO 205; COLO 205 treated 5 days with 0.1 µM SC-1, 10000 cells inoculated s.c.): 4 of 5 and 4/5
- Calculated Time to 1000 mg Tumor Volume (COLO 205; COLO 205 treated 5 days with 0.1 µM SC-1, 10,000 cells/inoculum, extrapolated from fitted line): 101 days
- Tumorigenicity (HCC-2998; HCC-2998, summary of SC-1 effects): Y
- Tumor take rate (HCC-2998; HCC-2998 treated 5 days with 0.1 µM SC-1, 100 cells inoculated s.c.): 0/5
- Tumor take rate (HCC-2998; HCC-2998 treated 5 days with 0.1 µM SC-1, 1000 cells inoculated s.c.): 0/5
- Tumor take rate (HCC-2998; HCC-2998 treated 5 days with 0.1 µM SC-1, 10000 cells inoculated s.c.): 2/5
- Calculated Time to 1000 mg Tumor Volume (HCC-2998; HCC-2998 treated 5 days with 0.1 µM SC-1, 10,000 cells/inoculum, extrapolated from fitted line): 139 days
- Tumorigenicity (HCT-116; HCT-116, summary of SC-1 effects): Y
- Tumor take rate (HCT-116; HCT-116 treated 5 days with 0.1 µM SC-1, 100 cells inoculated s.c.): 0/5
- Tumor take rate (HCT-116; HCT-116 treated 5 days with 0.1 µM SC-1, 1000 cells inoculated s.c.): 2/5
- Tumor take rate (HCT-116; HCT-116 treated 5 days with 0.1 µM SC-1, 10000 cells inoculated s.c.): 5/5
- Calculated Time to 1000 mg Tumor Volume (HCT-116; HCT-116 treated 5 days with 0.1 µM SC-1, 10,000 cells/inoculum, extrapolated from fitted line): 45 days
- Tumorigenicity (HT29; HT29, summary of SC-1 effects): Y
- Tumor take rate (HT29; HT29 treated 5 days with 0.1 µM SC-1, 100 cells inoculated s.c.): 2 of 5 and 2/5
- Tumor take rate (HT29; HT29 treated 5 days with 0.1 µM SC-1, 1000 cells inoculated s.c.): 3/5@
- Tumor take rate (HT29; HT29 treated 5 days with 0.1 µM SC-1, 10000 cells inoculated s.c.): 5/5
- Calculated Time to 1000 mg Tumor Volume (HT29; HT29 treated 5 days with 0.1 µM SC-1, 10,000 cells/inoculum, extrapolated from fitted line): 32 days
- Tumorigenicity (SW-620; SW-620, summary of SC-1 effects): Y
- Tumor take rate (SW-620; SW-620 treated 5 days with 0.1 µM SC-1, 100 cells inoculated s.c.): 0/5
- Tumor take rate (SW-620; SW-620 treated 5 days with 0.1 µM SC-1, 1000 cells inoculated s.c.): 0/5
- Tumor take rate (SW-620; SW-620 treated 5 days with 0.1 µM SC-1, 10000 cells inoculated s.c.): 2/5
- Calculated Time to 1000 mg Tumor Volume (SW-620; SW-620 treated 5 days with 0.1 µM SC-1, 10,000 cells/inoculum, extrapolated from fitted line): 98 days
- Cloning efficiency in soft agar vs control (KM12; 0.1 µM SC-1 for five days): significant increases in cloning efficiencies
- Clonogenicity (KM12; soft agar, summary of SC-1 effects): Y
- phospho-ERK 1/2 protein levels relative to total ERK1/2 (phospho-ERK1/2; 0.1 µM SC-1, 5 min): 67±0.06 % of control
- phospho-ERK 1/2 protein levels relative to total ERK1/2 (phospho-ERK1/2; 0.1 µM SC-1, 30 min): 56±0.06 % of control
- phospho-ERK 1/2 protein levels relative to total ERK1/2 (phospho-ERK1/2; 0.1 µM SC-1, 1 hr): 46±0.06 % of control
- phospho-ERK 1/2 protein levels relative to total ERK1/2 (phospho-ERK1/2; 0.1 µM SC-1, 4 hrs): 68±0.10 % of control
- OCT4 protein expression (OCT4): increased
- Cell number after in vitro SC-1 treatment vs control (colon tumor lines): statistically significant decrease in cell number
